Laboratory results taken from patent US9840465B2 (priority 2013, dated 2017).
Read-outs that look alike come from different tables or passages of the source.

Columns and labels:
[1] = system: Influenza A/Victoria/3/75 (H3N2); test: microbe, parasite or virus in culture; type: cell-based
A/WS/33 (H1N1), M2 S31N = type: cell-based, Influenza A virus
[2] = system: Influenza A/California/07/2009 (H1N1), M2 S31N; conditions: cited from earlier work
[3] = system: A/PR/8/34 (H1N1), M2 V27T/S31N; type: cell-based, Influenza A virus
[4] = system: Influenza A/California/07/2009 (H1N1), M2 S31N; type: cell-based, Influenza A virus
M2 22-62 (S31N) = M2 22-62 (S31N) (Influenza A virus, UniProt P0DOF5, C50S/S31N); type: biochemical
[5] = system: Influenza A/California/07/2009 (H1N1); type: cell-based, Influenza A virus; conditions: read-out: EC50 against the passage 12 7-resistant mutant
[6] = read-out: EC50 A/Calif/07/09 (H1N1)
[7] = read-out: EC50s of the drug components of the incubation mixture

NC12CC3CC(CC(C3)C1)C2 [Amantadine (1), Amantadine, reference compound]
EC50 ± S.E. (μM) [1]: Inactive | Resistance development [1]: complete during a single 3-4 day passage | EC50 ([1]; Influenza A virus, H3N2, read-out: EC50 ± S.E. (μM)): 2.8 ± 0.3 µM | EC50 (A/WS/33 (H1N1), M2 S31N): 24 µM | activity against H1N1 (2009) (known) [2]: inactive | EC50 [3]: 24 µM | EC50 [4, 6]: 240 µM | EC50 ([4]; read-out: EC50 ± SE (μM) (N)): 242 µM | H^+ Uptake Rate ± SD (%) (N) (M2 22-62 (S31N)): 77 ± 29 (8) %

O=C1CCC2(N1)C1CC3CC(C1)CC2C3 (stereo not shown) [Compound 3]
EC50 ([4]; read-out: EC50 ± SE (μM) (N)): 15.6 µM

C1CCC2(NC1)C1CC3CC(C1)CC2C3 (stereo not shown) [Compound 6]
EC50 ([4]; read-out: EC50 ± SE (μM) (N)): 19.8 µM | H^+ Uptake Rate ± SD (%) (N) (M2 22-62 (S31N)): 1.3 ± 5.7 (6) %

CCCC1(N)C2CC3CC(C2)CC1C3 (stereo not shown) [Compound 7]
EC50 (A/WS/33 (H1N1), M2 S31N): 390 µM | EC50 [3]: 0.5 µM | EC50 [4, 6]: 4.7 µM | EC50 ([4]; read-out: EC50 ± SE (μM) (N)): 4.71 µM | H^+ Uptake Rate ± SD (%) (N) (M2 22-62 (S31N)): 24 ± 17 (6) %

C1CNC(C23CC4CC(CC(C4)C2)C3)C1 (stereo not shown) [Compound 8]
EC50 ([4]; read-out: EC50 ± SE (μM) (N)): 15.4 µM | H^+ Uptake Rate ± SD (%) (N) (M2 22-62 (S31N)): 12 ± 13 (5) %

NC1(C23CC4CC(CC(C4)C2)C3)CCCC1 [Compound 9]
EC50 [4, 7]: 0.36 µM | EC50 ([4]; read-out: EC50 ± SE (μM) (N)): 0.79 µM | EC50 [5]: 22 ± 2 µM | H^+ Uptake Rate ± SD (%) (N) (M2 22-62 (S31N)): 11 ± 25 (3) %

C1CCC(C23CC4CC(CC(C4)C2)C3)NC1 (stereo not shown) [Compound 10]
EC50 [4, 7]: 2.8 µM | EC50 ([4]; read-out: EC50 ± SE (μM) (N)): 7 µM

CC12CC3CC(CC(C3)C13CCCN3)C2 [Compound 11, (1r,3s,5R,7S)-1-methylspiro[adamantane-2,2′-pyrrolidine]]
EC50 ([4]; read-out: EC50 ± SE (μM) (N)): 36 µM | H^+ Uptake Rate ± SD (%) (N) (M2 22-62 (S31N)): 17 ± 8.7 (6) %

NCCN1CCCC12C1CC3CC(C1)CC2C3 (stereo not shown) [Compound 12, 2-((1r,3r,5r,7r)-spiro[adamantane-2,2′-pyrrolidin]-1′-yl)ethan-1-amine]
EC50 ([4]; read-out: EC50 ± SE (μM) (N)): 2.66 µM | H^+ Uptake Rate ± SD (%) (N) (M2 22-62 (S31N)): 11 ± 18 (4) %

NC1(C23CC4CC(CC(C4)C2)C3)CCCCC1 [Compound 13, 1-((3r,5r,7r)-adamantan-1-yl)cyclohexan-1-amine]
EC50 ([4]; read-out: EC50 ± SE (μM) (N)): 3.62 µM | EC50 [5]: 10 ± 2 µM

CCCCC1(N)C2CC3CC(C2)CC1C3 (stereo not shown) [Compound 17, (1r,3r,5r,7r)-2-butyladamantan-2-amine]
EC50 (A/WS/33 (H1N1), M2 S31N): 355 µM | EC50 [3]: 0.3 µM | EC50 [4, 6]: 8.5 µM

CC(C)CC1(N)C2CC3CC(C2)CC1C3 (stereo not shown) [Compound 18, (1r,3r,5r,7r)-2-isobutyladamantan-2-amine]
EC50 (A/WS/33 (H1N1), M2 S31N): 210 µM | EC50 [3]: 0.3 µM | EC50 [4, 6]: 8 µM

NC1(c2ccccc2)C2CC3CC(C2)CC1C3 (stereo not shown) [Compound 19, (1r,3r,5r,7r)-2-phenyladamantan-2-amine]
EC50 (A/WS/33 (H1N1), M2 S31N): 86 µM | EC50 [3]: < 0.3 µM | EC50 [4, 6]: 21 µM | EC50 [4, 7]: 9.2 µM

NC1(Cc2ccccc2)C2CC3CC(C2)CC1C3 (stereo not shown) [Compound 20, (1r,3r,5r,7r)-2-benzyladamantan-2-amine]
EC50 (A/WS/33 (H1N1), M2 S31N): 280 µM | EC50 [3]: 1.2 µM | EC50 [4, 6]: 8.6 µM

CCCCCCC1(N)C2CC3CC(C2)CC1C3 (stereo not shown) [Compound 101, 2-n-hexyl-tricyclo[3.3.1.1^3,7]decan-2-amine]
EC50 (A/WS/33 (H1N1), M2 S31N): 13 µM | inhibition of the A/WS/33 strain (in words) (A/WS/33 (H1N1), M2 S31N): some inhibitory effect | EC50 [3]: 0.07 µM | EC50 [4, 6]: 0.13 µM

CC(C)(N)C12CC3CC(CC(C3)C1)C2 [Compound 259, 2-(adamantan-1-yl)propan-2-amine]
EC50 (A/WS/33 (H1N1), M2 S31N): 300 µM | EC50 [3]: < 0.2 µM | EC50 [4, 6]: 24 µM

CC1CCC2(N1)C1CC3CC(C1)CC2C3 (stereo not shown) [Compound 341, 5-methylspiro[pyrrolidine-2,2′-tricyclo[3.3.1.1^3,7]decane]]
efficacy against A/California/07/2009 (in words) [4]: less effective than the others | EC50 [4, 6]: 34 µM

CC1CNC2(C1)C1CC3CC(C1)CC2C3 (stereo not shown) [Compound 342, 4-Methylspiro[pyrrolidine-2,2′-tricyclo[3.3.1.1^3,7]decane]]
EC50 [4, 6]: 9.5 µM

CC1CCNC12C1CC3CC(C1)CC2C3 (stereo not shown) [Compound 343, 3-Methylspiro[pyrrolidine-2,2′-tricyclo[3.3.1.1^3,7]decane]]
EC50 [4, 6]: 7.2 µM

CC1CCC2(C3CC4CC(C3)CC2C4)N1C (stereo not shown) [Compound 344, 1,5-Dimethylspiro[pyrrolidine-2,2′-tricyclo[3.3.1.1^3,7]decane]]
EC50 [4, 6]: 7.7 µM

CC1CN(C)C2(C1)C1CC3CC(C1)CC2C3 (stereo not shown) [Compound 345, 1,4-dimethylspiro[pyrrolidine-2,2′-tricyclo [3.3.1.1^3,7]decane]]
EC50 [4, 6]: 7 µM

CC1CCN(C)C12C1CC3CC(C1)CC2C3 (stereo not shown) [Compound 346, 1,3-dimethylspiro[pyrrolidine-2,2′-tricyclo [3.3.1.1^3,7]decane]]
EC50 [4, 6]: 10.2 µM

CCC1CCC2(N1)C1CC3CC(C1)CC2C3 (stereo not shown) [Compound 347, 5-ethylspiro[pyrrolidine-2,2′-tricyclo[3.3.1.1^3,7]decane]]
EC50 [4, 6]: 8.7 µM

CC(N)C12CC3CC(CC(C3)C1)C2 (stereo not shown) [Rimantadine (2), Rimantadine, reference compound]
EC50 (A/WS/33 (H1N1), M2 S31N): 310 µM | activity against H1N1 (2009) (known) [2]: inactive | EC50 [3]: 3.3 µM | EC50 [4, 6]: 110 µM | EC50 ([4]; read-out: EC50 ± SE (μM) (N)): 106 µM
